Consider 6 compounds from publication PMC4085075, “Characterization of Estrogen and Androgen Activity of Food Contact Materials by Different In Vitro Bioassays (YES, YAS, ERα and AR CALUX) and Chromatographic Analysis (GC-MS, HPLC-MS)” (PLoS ONE, 2014).

Like-named read-outs stand apart in the source and are kept apart here. Bounds are passed on as bounds.

By EC50 is commonly meant the concentration that produces a half-maximal response.

One test deals with MCF7. Also on record: method as in PMID 11485868. To be noted: human cell-based MCF7 proliferation assay; cited from earlier work.
For test [1], the target named is T1, human estrogen receptor (hERα) (Homo sapiens, UniProt P03372).
T1 construct: expressed in transfected cells; host or cells: recombinant yeast strain (provided by Wagner and Oehlmann, Frankfurt; by permission of Routledge and Sumpter)
T1 sequence (P03372 1-595): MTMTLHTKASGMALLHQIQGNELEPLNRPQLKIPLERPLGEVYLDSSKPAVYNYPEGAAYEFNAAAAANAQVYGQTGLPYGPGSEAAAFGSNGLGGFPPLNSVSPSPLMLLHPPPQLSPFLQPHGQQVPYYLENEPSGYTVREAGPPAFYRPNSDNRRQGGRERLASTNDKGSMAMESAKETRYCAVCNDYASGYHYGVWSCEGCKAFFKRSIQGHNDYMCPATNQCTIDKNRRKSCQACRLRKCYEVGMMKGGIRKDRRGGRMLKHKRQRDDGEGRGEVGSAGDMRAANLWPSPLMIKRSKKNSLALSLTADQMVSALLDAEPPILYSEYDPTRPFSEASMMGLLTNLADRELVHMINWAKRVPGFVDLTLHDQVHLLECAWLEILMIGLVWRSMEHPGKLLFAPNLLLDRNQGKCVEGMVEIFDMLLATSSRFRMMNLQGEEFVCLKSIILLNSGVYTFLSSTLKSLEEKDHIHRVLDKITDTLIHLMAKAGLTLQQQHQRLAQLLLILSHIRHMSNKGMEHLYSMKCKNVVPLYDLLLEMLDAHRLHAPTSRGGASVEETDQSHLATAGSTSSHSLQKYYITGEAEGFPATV
Kind of test: Yeast estrogen screen (YES). In kind it is cell-based. Here is the method:
(§1) Briefly, different resin types of food packaging were migrated with food simulants for 10 days at 60°C. […] From every sample two independent migrates were prepared, subsequently concentrated by solid phase extraction and tested in the bioassays. […] For each migration a solvent blank of each food simulant was migrated in a glass bottle with a polytetrafluorethylene-coated cap. Prior to solid phase extraction, 1 ml and 20 ml of each migrate were set aside for HPLC and GC analysis.
(§2) After 10 days of migration, solid phase extraction by Waters Oasis HLB columns (5 cc/200 mg) was used to extract hormone active components from the food simulants. As described in detail by Kirchnawy et al. sample migrates diluted to 10% ethanol and adjusted to pH 3 were drawn through the columns and eluted into […] DMSO. Elutes were evaporated under a nitrogen stream to a final volume of 150–200 µl and stored at 4°C prior to analysis by YES, YAS and CALUX bioassays. Extraction recoveries and reproducibility of the solid phase extraction were previously determined by Kirchnawy et al..
The yeast strain contains the stably integrated human estrogen receptor (hERα) gene and an expression plasmid containing the reporter gene lacZ under the control of estrogen responsive elements (ERE). The activation of the hERα by the binding of an estrogen active substance leads to the expression of β-galactosidase, which converts the substrate chlorophenol red-β-D-galactopyranoside (CPRG) into chlorophenol red.
The analysis of food contact materials was conducted as previously described by Kirchnawy et al.. Briefly, yeast cells were incubated with fresh media supplemented with 1% of the respective DMSO sample extracts on a 96-well microtiter plate for 24 h. […] The regression was calculated by MS Excel, using the formula for a linear regression curve (y = kx + d).

For test [2], the target named is T2, human estrogen receptor alpha (hERα) (Homo sapiens, UniProt P03372).
T2 construct: host or cells: human U2-OS osteosarcoma cells
T2 sequence (P03372 1-595): T1 sequence (P03372 1-595)
The experiment in a line: ERα CALUX reporter gene assay in U2-OS cells. Type of test: cell-based. To be noted: for EC50: footnote a: inhibition of U2-OS cell growth at higher concentrations. Here is the method:
as §1, §2
The ERα CALUX is a human U2-OS cell line stably co-transfected with an expression construct for the human estrogen receptor alpha (hERα). Activation of the hERα by the binding of an estrogen active substance leads to the transcription of luciferase, which emits light when luciferin is added as a substrate.
Assay procedure was conducted as previously described by Sonneveld et al. with modifications. U2-OS cells were plated at a concentration of 10 000 cells/well with 100 µl phenol red-free Dulbecco's modified eagle medium (DMEM) (supplemented with dextran-coated charcoal-stripped FCS) in a 96-well microtiter plate. After 24 h incubation at 37°C in a humidified atmosphere with 5% CO2, DMEM medium was refreshed and cells were incubated for another 24 h with 0.5% of the respective DMSO sample extract. After examining cell growth under a microscope to ensure that sample extracts had no cytotoxic or growth inhibiting effects, 50 µl Steady Glo Luciferase-Mix (Promega) was added to each well and incubated for 15 min for cell lysis. This was followed by measuring the luciferase activity of each well using a multilabel reader (Victor^3, Perkin Elmer).
Background: A reporter such as luciferase makes a cellular process visible.

The target of test [3] is T3, human androgen receptor (hAR) (Homo sapiens, UniProt P10275).
T3 sequence (P10275 1-920): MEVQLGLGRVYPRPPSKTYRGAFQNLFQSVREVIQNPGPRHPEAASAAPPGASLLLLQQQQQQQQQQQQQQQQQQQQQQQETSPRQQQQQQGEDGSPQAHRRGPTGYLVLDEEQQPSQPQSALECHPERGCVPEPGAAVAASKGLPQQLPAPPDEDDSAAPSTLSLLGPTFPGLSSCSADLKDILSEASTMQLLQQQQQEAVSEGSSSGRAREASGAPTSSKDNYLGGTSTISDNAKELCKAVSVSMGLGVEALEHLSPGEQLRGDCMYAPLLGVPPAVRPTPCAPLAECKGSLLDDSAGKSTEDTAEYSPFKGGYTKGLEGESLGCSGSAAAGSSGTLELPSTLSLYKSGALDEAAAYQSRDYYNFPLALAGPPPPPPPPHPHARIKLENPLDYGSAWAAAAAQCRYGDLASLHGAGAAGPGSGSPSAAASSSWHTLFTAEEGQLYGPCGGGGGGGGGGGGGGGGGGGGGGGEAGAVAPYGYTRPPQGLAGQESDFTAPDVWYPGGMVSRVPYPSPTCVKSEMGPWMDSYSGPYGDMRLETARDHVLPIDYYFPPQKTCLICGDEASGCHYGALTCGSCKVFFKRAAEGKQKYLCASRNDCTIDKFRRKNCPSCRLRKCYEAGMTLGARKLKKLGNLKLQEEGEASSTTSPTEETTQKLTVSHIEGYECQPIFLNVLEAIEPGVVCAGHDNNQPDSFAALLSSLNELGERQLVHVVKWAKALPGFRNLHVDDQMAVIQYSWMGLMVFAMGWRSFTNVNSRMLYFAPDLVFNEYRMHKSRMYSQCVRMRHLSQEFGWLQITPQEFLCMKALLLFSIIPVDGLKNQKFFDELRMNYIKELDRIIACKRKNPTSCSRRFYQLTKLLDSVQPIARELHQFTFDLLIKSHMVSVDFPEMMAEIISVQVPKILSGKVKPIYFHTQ
The experiment in a line: Yeast androgen screen (YAS). To be noted: footnote b: inhibition of yeast growth at higher concentrations. Type of test: cell-based. Here is the method:
as §1, §2

The target of test [4] is T3, human androgen receptor (hAR). The experiment in a line: AR CALUX reporter gene assay in U2-OS cells. Type of test: cell-based. Also on record: host or cells: human U2-OS osteosarcoma cells. The conditions noted are these: footnote a: inhibition of U2-OS cell growth at higher concentrations. Here is the method: as §1, §2
For another test, the system named is CHO-K1 cells. Further details: method as in PMID 18261797. To be noted: cited from earlier work.
In another test the test system is rainbow trout. Further details: method as in PMID 18261797. To be noted: cited from earlier work.
For test [5], the system named is kidney fibroblast cell 293T and human breast cancer cells ZR-75. Further details: method as in PMID 7556011. The conditions noted are these: at a concentration of 100 µmol/l; cited from earlier work.
Details of test [6]: method as in PMID 21050888. The conditions noted are these: cited from earlier work.
Setting [7] is: agonist mode, footnote b: inhibition of yeast growth at higher concentrations, read-out: YES Estrogen activity EC50.
[8] abbreviates: antagonist mode, spiked with 80 pmol/l 17β-estradiol, footnote b: inhibition of yeast growth at higher concentrations, read-out: YES Antiestrogen activity EC50.
Setting [9] is: agonist mode, read-out: ER CALUX Estrogen activity EC50.
The mark [10] stands for this setting: antagonist mode, spiked with 8 pmol/l 17β-estradiol, read-out: ER CALUX Antiestrogen activity EC50.

For `c1ccc(C2CCC2c2ccccc2)cc1` (stereo not drawn) [1,2-diphenylcyclobutane], in the test on MCF7, the “times less active than 17β-estradiol” value is listed as 4*10^5.

For `c1ccc(CCCc2ccccc2)cc1` [1,3-diphenylpropane], the “estrogen activity in the YES (in words)” value in test [1] (agonist mode) was “tested positive for estrogen activity”. The EC50 in [1] (setting [7]) is 500 µM; in [1] (setting [8]), above 1000 µM; in test [2] (setting [9]), 40 µM; in [2] (setting [10]) it was above 500 µM; in [3] (agonist mode, read-out: YAS Androgen activity EC50), above 1000 µM; in [3] (antagonist mode, spiked with 2.4 nmol/l DHT, read-out: YAS Antiandrogen activity EC50), 30 µM. Besides, the EC50 is above 500 µM in [4] (agonist mode, read-out: AR CALUX Androgen activity EC50) and 30 µM in [4] (antagonist mode, spiked with 400 pmol/l DHT, read-out: AR CALUX Antiandrogen activity EC50). The “estrogen activity in the ERα CALUX (in words)” value in [2] (agonist mode) was “tested positive for estrogen activity”.

Take `CC(C)(c1ccccc1)c1ccc(O)c(C(C)(C)c2ccccc2)c1` [2,4-di-cumylphenol]: the 50% effective concentration (EC50) in test [1] is above 300 µM; in test [2] (ER CALUX Antiestrogen activity EC50, antagonist mode, spiked with 8 pmol/l 17β-estradiol) it was above 20 µM; in test [2] (ER CALUX Estrogen activity EC50, agonist mode) it was 5 µM. Further, in [1] (agonist mode), the “estrogen activity in the YES (in words)” value is listed as “showed estrogen activity”. Also, in test [2] (agonist mode), the “estrogen activity in the ERα CALUX (in words)” value was “showed estrogen activity”.

`CC(C)(C)c1ccc(O)c(C(C)(C)C)c1` [2,4-di-tert-butylphenol]: the EC50 in test [1] (setting [7]) was above 10 µM; in [1] (setting [8]), above 10 µM; in test [2] (setting [9]), above 20 µM; in test [2] (setting [10]), above 20 µM. Further, the “androgen antagonist in CHO-K1 cells” value in the test on CHO-K1 cells is given as “androgen antagonist”. In the test with rainbow trout, the “androgen antagonist in rainbow trout” value is on record as “androgen antagonist”.

Take `Cc1cc(C(C)(C)C)c(O)c(C(C)(C)C)c1` [2,6-bis(1,1-dimethylethyl)-4-methylphenol]: the “estrogen activity in 293T and ZR-75 cells” value in test [5] is listed as “tested positive for estrogen”.

On to `CCCCC(CC)COC(=O)CCCCC(=O)OCC(CC)CCCC` (stereo not drawn) [diethylhexyladipate (DEHA), diethylhexyladipate], for which, in test [1] (agonist mode), the “estrogen activity in the YES (in words)” value is “did not show any activity”. Further, the EC50 was above 1000 µM in test [1] (setting [7]), above 1000 µM in test [1] (setting [8]), above 500 µM in test [2] (setting [9]) and above 500 µM in [2] (setting [10]). In addition, in test [2] (agonist mode), the “estrogen activity in the ERα CALUX (in words)” value is given as “did not show any activity”. Moreover, the “estrogen activity using the E-Screen” value in test [6] was “tested positive for estrogen activity”.
